# Data as given in patent publication US10940113B2, “Pharmaceutical composition for colon targeting, method for treating a colon-related disease using the same and preparation method thereof” (priority 2017, dated 2021).
# System: distal colitis induced via intracolonic injection of DNBS
# Experiment: DNBS-induced distal colitis animal test
# Format: in vivo, Male Wistar mice
# Settings: 2 CAP qd × 7, PO, sacrificed at Day 8
# Description: […] were starved for 24 hr, and distal colitis was induced via intracolonic injection of DNBS (2,4-dinitrobenzene sulfonic acid, 30 mg in 0.5 mL ethanol (30%)). Then, 2 mL air was injected after instillation of the enema to ensure the solution was remained in the colon. The test substance (the pharmaceutical composition of Embodiment 3-1) and mesalamine were oral administered 24 hr and 2 hr prior to the DNBS injection, followed by administering one dose a day, and 5 days. The total doses of the test substance and mesalamine were 7 doses. The body weight, fecal occult blood and fecal consistency were recorded every day during the experiment. The animals were sacrificed at Day 8. The adhesions of colon and other organs were observed after abdominal opening, the colitis still can be observed, and the colon was carried out and weighted.
smiles,measurement,value
"Nc1ccc(O)c(C(=O)O)c1 [Mesalamine, mesalamine]",Adhesion,0.0 ± 0.0
same,Colon width,1.0 ± 0.0
same,Strictures,2.6 ± 0.2
same,Ulcers/Inflammation,3.2 ± 0.54
